Data as given in paper PMC6961122 (Bioorganic & Medicinal Chemistry, 2020).
Like-named read-outs stand apart in the source and are kept apart here.

Columns and labels:
U87 cells [1] = test: Cell viability assay (PrestoBlue, 5 d) in U87 glioma cells; format: cell-based; conditions: PrestoBlue day 5; for EC50 in U87 cells: repeat for most potent hits, 7-point half-log dose-response 1 to 1,000 nM; for activity (EC50) of novel compounds in U87, in words: 1 to 30,000 nM, Fig. 7
T98 cells [2] = test: Cell viability assay (PrestoBlue, 5 d) in T98 glioma cells; format: cell-based; conditions: PrestoBlue day 5; for EC50 in T98 cells: repeat for most potent hits, 7-point half-log dose-response 1 to 1,000 nM; for activity (EC50) of novel compounds in T98, in words: 1 to 30,000 nM, Fig. 7
[3] = system: G317 patient-derived glioma cells; test: Growth inhibition (GI50, PrestoBlue, 5 d) in patient-derived glioma cells G317; format: cell-based, human; conditions: 5 d treatment, growth related to t=0 and DMSO, extrapolated from sigmoidal dose-response curve; for GI50: read-out: GI50 (50% of growth inhibition) in G317
Procedure: Cells were treated with each inhibitor at concentrations ranging from 1 to 10,000 nM and PrestoBlue assay used at day 5 to detect viability. […] Data are means ± SEM of 3 independent experiments in triplicates.
(§1) U87 and T98 cells (ATCC) were cultured in DMEM (Gibco), supplemented with 10% (v/v) FBS (Gibco) and 2 mM L-Glutamine (Gibco) in a standard incubator (95% humidity, 5% CO2), and subcultured twice per week through trypsinization. G317 patient-derived glioma cells were established by the Glioma Cellular Genetics Resource (gcgr.org.uk) funded by Cancer Research UK. Ethics approval for use of patient-derived cells and early access confirmation to reagents from the Glioma Cellular Genetics Resource assured that all ethical issues according to UK legislation are fulfilled. G317 were cultured in DMEM/HAMS-F12 (Sigma) supplemented with 1.5 g L^−1 D-(+)-Glucose (Sigma), MEM non-essential aminoacids (Gibco), 0.015% (w/v) Penicillin-Streptomycin (Gibco), 0.012% (w/v) BSA (Gibco), 0.1 mM β-mercaptoethanol (Gibco), B27 (Gibco) and N2 supplements (Gibco). Cells were detached using accutase solution (Sigma) and subcultured once per week. Before adding to the cells, medium was supplemented with 10 ng ml^−1 mouse EGF (Preprotech), 10 ng ml^−1 human FGF (Preprotech), and 1 µg ml^−1 Laminin (Sigma).
(§2) 1 × 10^3 U87 cells/well, 5 × 10^2 T98 cells/well, 1 × 10^4 G317 cells/well, 1 × 10^4 HBVP cells/well and 1 × 10^4 bEnd3 cells/well were seeded in 96-well plates. After 48 h in culture, cells were treated with the inhibitors for 5 d. For GI50 determination, the viability of a triplicate sample of each experiment before treatment was measured with the PrestoBlue Reagent (Invitrogen), to establish a basepoint 0% of growth. […] ZIP Synergy scores were obtained with Synergy finder.[22] Viability percentage, EC50 and GI50 values were obtained using GraphPad Prism version 8.0.0 for Windows, GraphPad Software, San Diego, California USA, www.graphpad.com.
Table S2 . GI 50 values (nM) calculated for eCF309 , eCF311 , eCF312 , eCF324 , eCF325 and controls
Cells were treated with 10, 3, 1 µM,
300, 100, 30, 10, 3, 1, 0 nM of each inhibitor during 5 d. Cell growth (PrestoBlue) was related to t=0 (before
drug treatment), and GI 50 values were extrapolated from their corresponding sigmoidal dose-response curve

T98 cells [4] = test: Cell viability assay (PrestoBlue, 5 d) in T98 glioma cells; format: cell-based; conditions: library screen, 5 d treatment, mean of three independent experiments in triplicates, read-out: EC50 T98 ± SEM
Procedure: (§3) The antiproliferative activity of a total of 100 compounds was tested against U87 and T98 glioma cell lines, using TMZ[3] and the Topoisomerase I inhibitor SN-38[18] as positive controls. Cells were treated with the library members for 5 d at three different concentrations (3, 30 and 300 µM) and cell viability determined using the PrestoBlue reagent. Half-maximal effective concentration (EC50) values were calculated from the corresponding dose-response curves and plotted in Fig. 2a as a heatmap to facilitate data analysis, with black meaning no activity and dark to light green to yellow transitions indicating decreasing EC50 values (=increasing potencies). Table 1 of the Suppl. Data contains the corresponding EC50 values ± SEM.
(§4) INK128 and SN-38 were used as positive controls. […] Structurally, these derivatives differed in the size of the alkyl group of the N1 position and the presence or absence of an oxygen atom in that moiety (see Suppl. Data).
as §1, §2

mTOR = system: mTOR; set-up: method as in earlier work; conditions: recombinant kinase; previously obtained kinase profiling data; cited from earlier work
PI3Kα = system: PI3Kα; set-up: method as in earlier work; conditions: recombinant kinase; previously obtained kinase profiling data; cited from earlier work
U87 cells [5] = test: Cell viability assay (PrestoBlue, 5 d) in U87 glioma cells; format: cell-based; conditions: library screen, 5 d treatment, mean of three independent experiments in triplicates, read-out: EC50 U87 ± SEM
Procedure: as §3, §4, §1, §2

[6] = Homo sapiens, Glioma cell, 120 h

| Compound | EC50 (T98 cells [4]) [µM] | EC50 (U87 cells [5]) [µM] | other results |
| --- | --- | --- | --- |
| 2-(1H-Indazol-4-yl)-6-(4-methanesulfonyl-piperazin-1-ylmethyl)-4-morpholin-4-yl-thieno[3,2-d]pyrimidine [GDC0941, reference compound] |  |  | activity (EC50) in U87 cells, in words (U87 cells [1]; 1 to 1,000 nM, Fig. 3): low µM activity; activity (EC50) against T98, in words (T98 cells [2]; 1 to 1,000 nM, Fig. 3): sub-µM activity |
| CCc1c2c(nc3ccc(O)cc13)-c1cc3c(c(=O)n1C2)COC(=O)[C@]3(O)CC [SN-38, reference compound] |  |  | GI50 [3, 6]: 0.0129 µM |
| CCOC(Cn1nc(-c2ccc3oc(N)nc3c2)c2c(N)ncnc21)OCC [eCF309] |  |  | GI50 [3]: 0.0649 µM; GI50 [3, 6]: 0.065 µM; EC50 (T98 cells [4]; Homo sapiens, T98, 120 h): 0.128 ± 0.022 µM; IC50 (mTOR): 0.015 µM; IC50 (PI3Kα): 0.981 µM; EC50 (U87 cells [5]; Homo sapiens, U-87 MG, 120 h): 0.129 ± 0.019 µM |
| Nc1nc2cc(-c3nn(CC4OCCO4)c4ncnc(N)c34)ccc2o1 [eCF311] |  |  | GI50 [3, 6]: 0.147 µM; EC50 (T98 cells [4]; Homo sapiens, T98, 120 h): 0.323 ± 0.087 µM; EC50 (U87 cells [5]; Homo sapiens, U-87 MG, 120 h): 0.392 ± 0.058 µM |
| COC(Cn1nc(-c2ccc3oc(N)nc3c2)c2c(N)ncnc21)OC [eCF312] |  |  | GI50 [3, 6]: 0.0369 µM; EC50 (T98 cells [4]; Homo sapiens, T98, 120 h): 0.08 ± 0.021 µM; EC50 (U87 cells [5]; Homo sapiens, U-87 MG, 120 h): 0.116 ± 0.021 µM |
| Nc1nc2cc(-c3nn(CC4CCCO4)c4ncnc(N)c34)ccc2o1 (stereo not drawn) [eCF325] |  |  | GI50 [3, 6]: 0.0464 µM; EC50 (T98 cells [4]; Homo sapiens, T98, 120 h): 0.105 ± 0.023 µM; EC50 (U87 cells [5]; Homo sapiens, U-87 MG, 120 h): 0.138 ± 0.023 µM |
| Nc1nc2cc(-c3nn(C[C@H]4CCCO4)c4ncnc(N)c34)ccc2o1 [eCF333] |  |  | GI50 (50% of growth inhibition) in G317 [3]: identical dose response curves to eCF325; EC50 (T98 cells [4]; Homo sapiens, T98, 120 h): 0.088 ± 0.014 µM; EC50 in U87 cells (U87 cells [1]): identical dose response curves to that of eCF325; EC50 in T98 cells (T98 cells [2]): identical dose response curves to that of eCF325; EC50 (U87 cells [5]; Homo sapiens, U-87 MG, 120 h): 0.131 ± 0.01 µM |
| Nc1nc2cc(-c3nn(C[C@@H]4CCCO4)c4ncnc(N)c34)ccc2o1 [eCF334] |  |  | GI50 (50% of growth inhibition) in G317 [3]: identical dose response curves to eCF325; EC50 (T98 cells [4]; Homo sapiens, T98, 120 h): 0.1 ± 0.018 µM; EC50 in U87 cells (U87 cells [1]): identical dose response curves to that of eCF325; EC50 in T98 cells (T98 cells [2]): identical dose response curves to that of eCF325; EC50 (U87 cells [5]; Homo sapiens, U-87 MG, 120 h): 0.138 ± 0.013 µM |
| CNc1ncc2c(-c3ccc4oc(N)nc4c3)nn(CC3CCCC3)c2n1 [eDB001] |  |  | activity (EC50) of novel compounds in U87, in words (U87 cells [1]): high activity; activity (EC50) of novel compounds in T98, in words (T98 cells [2]): high activity |
| Nc1ncnc2c1c(-c1cnc3[nH]ccc3c1)nn2CC1CCCC1 [eDB002] |  |  | activity (EC50) of novel compounds in U87, in words (U87 cells [1]): high activity; activity (EC50) of novel compounds in T98, in words (T98 cells [2]): high activity |
| CNc1ncc2c(-c3ccc(OC)cc3)nn(CC3CCCC3)c2n1 [eSM105] | 6.36 ± 0.563 | 20.9 ± 1.73 |  |
| CNc1ncc2c(-c3ccc(C(N)=O)cc3)nn(CC3CCCC3)c2n1 [eSM106] | > 30 | > 30 |  |
| CNc1ncc2c(-c3ccc(N4CCNCC4)nc3)nn(CC3CCCC3)c2n1 [eSM107] | 2.42 ± 0.504 | 3.33 ± 0.166 |  |
| CNc1ncc2c(-c3cccc(C(N)=O)c3)nn(CC3CCCC3)c2n1 [eSM108] | > 30 | 23.8 ± 2.78 |  |
| CNc1ncc2c(-c3ccc(OC)cc3)nn(CC3OCCO3)c2n1 [eSM110] | > 30 | > 30 |  |
| CNc1ncc2c(-c3ccc(-c4ccccc4)cc3)nn(CC3OCCO3)c2n1 [eSM111] | > 30 | > 30 |  |
| CNc1ncc2c(-c3ccc(N4CCNCC4)nc3)nn(CC3OCCO3)c2n1 [eSM112] | 9.26 ± 0.465 | 21.3 ± 2.35 |  |
| CNc1ncc2c(-c3ccc(F)cc3)nn(CC3OCCO3)c2n1 [eSM113] | > 30 | > 30 |  |
| CNc1ncc2c(-c3ccc(C(F)(F)F)cc3)nn(CC3OCCO3)c2n1 [eSM114] | > 30 | > 30 |  |
| CNc1ncc2c(-c3ccc(N4CCNCC4)nc3)nn(Cc3cn(Cc4ccccc4)nn3)c2n1 [eSM119] | 11.3 ± 0.882 | 9.73 ± 1.22 |  |
| CNc1ncc2c(-c3ccc(N4CCNCC4)nc3)nn(Cc3cn(C4CCCC4O)nn3)c2n1 (stereo not drawn) [eSM121] | 26.3 ± 1.81 | 16.5 ± 1.88 |  |

| Compound | EC50 (T98 cells [4]) [µM] | EC50 (U87 cells [5]) [µM] | other results |
| --- | --- | --- | --- |
| CNc1ncc2c(-c3ccc(N4CCNCC4)nc3)nn(Cc3cn(C4CCCCC4O)nn3)c2n1 (stereo not drawn) [eSM123] | 24.2 ± 3.6 | 25.4 ± 4.66 |  |
| CCNc1ncc2c(-c3ccc(N4CCNCC4)nc3)nn(CC3OCCO3)c2n1 [eSM133] | 15.6 ± 2.75 | > 30 |  |
| CNc1ncc2c(-c3ccc(N4CCN(C)CC4)nc3)nn(Cc3cn(Cc4ccccc4)nn3)c2n1 [eSM134] | 18.8 ± 3.57 | 18.9 ± 5.27 |  |
| CNc1ncc2c(-c3ccc(N4CCNCC4)cc3)nn(Cc3cn(Cc4ccccc4)nn3)c2n1 [eSM135] | 6.26 ± 1.39 | 13 ± 0.291 |  |
| CNc1ncc2c(-c3ccc(N4CCNCC4)nc3)nn(Cc3cn(-c4ccccc4)nn3)c2n1 [eSM139] | 8.6 ± 3.39 | 6.09 ± 1.39 |  |
| CNc1ncc2c(-c3ccc(N4CCNCC4)nc3)nn(Cc3cn(-c4ccc(Cl)cc4)nn3)c2n1 [eSM143] | 3.02 ± 0.568 | 3.06 ± 0.833 |  |
| CNc1ncc2c(-c3cnc4[nH]ccc4c3)nn(Cc3cn(Cc4ccccc4)nn3)c2n1 [eSM145] | 9.11 ± 1.67 | 14.2 ± 0.557 |  |
| CNc1ncc2c(-c3ccc(N(C)C)nc3)nn(Cc3cn(Cc4ccccc4)nn3)c2n1 [eSM146] | > 30 | > 30 |  |
| CNc1ncc2c(-c3ccc(N4CCN(C(=O)NC(C)(C)C)CC4)nc3)nn(CC3CCCC3)c2n1 [eSM149] | > 30 | > 30 |  |
| CNc1ncc2c(-c3ccc(N4CCN(C(=O)C(C)(C)C)CC4)nc3)nn(CC3CCCC3)c2n1 [eSM150] | 10.1 ± 3 | 22.7 ± 9.53 |  |
| CNc1ncc2c(-c3ccc(N4CCN(C(=O)C(C)(C)C)CC4)nc3)nn(Cc3cn(Cc4ccccc4)nn3)c2n1 [eSM153] | > 30 | > 30 |  |
| CCN1CCN(c2ccc(-c3nn(Cc4cn(Cc5ccccc5)nn4)c4nc(NC)ncc34)cn2)CC1 [eSM155] | > 30 | > 30 |  |
| CNc1ncc2c(-c3ccc(N4CCN(C)CC4)cc3)nn(CC3CCCC3)c2n1 [eSM156] | 1.77 ± 0.865 | 8 ± 3.32 |  |
| CNc1ncc2c(-c3ccc(N4CCN(C)CC4)nc3)nn(CC3CCCC3)c2n1 [eSM157] | 1.71 ± 0.512 | 7.28 ± 2.7 |  |
| COc1ccc(-c2nn(CC3CCCC3)c3ncnc(N)c23)cc1OC [eSM204] | 6.58 ± 1.47 | 8.56 ± 0.564 |  |
| COc1ccc(-c2nn(CC3CCCC3)c3ncnc(N)c23)cc1 [eSM205] | 11.9 ± 6.5 | 14.3 ± 6.14 |  |
| NC(=O)c1ccc(-c2nn(CC3CCCC3)c3ncnc(N)c23)cc1 [eSM207] | 21.3 ± 3.28 | 19.9 ± 6.03 |  |
| Nc1ncnc2c1c(-c1ccoc1)nn2C1CCCC1 [eSM209] | 15.6 ± 1.45 | 23.6 ± 2.51 |  |
| Nc1ncnc2c1c(-c1ccc(C(F)(F)F)cc1)nn2CC1CCCC1 [eSM210] | 18.8 ± 2.69 | 25 ± 3.15 |  |
| Nc1ncnc2c1c(-c1ccc(F)cc1)nn2CC1CCCC1 [eSM211] | 24.6 ± 3.25 | > 30 |  |
| Nc1ncnc2c1c(-c1ccc(-c3ccccc3)cc1)nn2CC1CCCC1 [eSM212] | 22.8 ± 3.13 | > 30 |  |
